Results on 1 molecule are retold here after publication PMC10955127 (Frontiers in Pharmacology, 2024).

Data set [1] concerns Thyroid (TR and TPO only). Set-up: method as in ToxCast. Particulars: ref ToxCast, cited from earlier work.
In data set [2] the test system is thyroid pathway. Set-up: method as in ToxCast database. Particulars: ref ToxCast database; cited from earlier work.
Another data set has as its system rats. The note with it: highest dose tested; KS2; cited from earlier work.
The subject of data set [3] is estrogen receptor. Further details: method as in ToxCast database. Particulars: ref ToxCast database; cited from earlier work.
For a further data set, the system named is TSHR. Further details: method as in ToxCast database. The note with it: ref ToxCast database; cited from earlier work.
For data set [4] the following is noted: KS2; cited from earlier work.
Data set [5] deals with estrogen receptor. Further details: method as in ToxCast database. Particulars: ref ToxCast database; cited from earlier work. This is another data set of the same source.
For data set [6], the system named is estrogen receptor. Set-up: method as in ToxCast database. Particulars: ref ToxCast database; cited from earlier work. This is another data set of the same source.
A further data set has as its system Aromatase. Set-up: method as in ToxCast database. Particulars: ref ToxCast database; cited from earlier work.
The nature of data set [7]: In vitro skin penetration and metabolism, fresh viable pig skin on static Franz cells. From the text: Fresh viable pig skin (without hot steam treatment, by-product from meat industry) was obtained from a local, commercial butcher (Hammoor, Germany). The back skin was from female pigs (bred from “Dänische Landrasse” (female) and Pietrain (male) pigs, ~130 days old, 100 kg body weight). Pig skin samples were gently dry-shaved and washed with water before use. For the experiment, 2 replicate discs from each of 3 donors were used.
Skin of full-thickness was mounted on static Franz cells with a 4.9 cm² application area. The receptor compartment of the diffusion cell was filled with approx. 5 ml RF (1% BSA, 0.9% NaCl, 0.05% gentamycin sulfate in water), above a magnetic stirrer set to low rotation. […] The experiment was conducted using non-occluded conditions.
The dermal absorption was calculated as the total amount present within epidermis (without the amount in the total SC strips), dermis and RF.

The test system of data set [8] is estrogen receptor. Further details: method as in ToxCast database. Particulars: ref ToxCast database; cited from earlier work. The source holds these as a separate data set.
Data set [9] has as its system thyroid pathway. Further details: method as in ToxCast database. The note with it: ref ToxCast database; cited from earlier work. This is another data set of the same source.
The conditions of data set [10]: ref PubChem or the ECHA database; cited from earlier work.
Data set [11] relates to estrogen receptor. Further details: method as in ToxCast database. Particulars: ref ToxCast database; cited from earlier work. This is another data set of the same source.
In data set [12] the test system is estrogen receptor. Set-up: method as in ToxCast database. The note with it: ref ToxCast database, cited from earlier work.
In data set [13] the test system is thyroid pathway. Further details: method as in ToxCast database. The note with it: ref ToxCast database; cited from earlier work. The source holds these as a separate data set.
The mark [14] stands for this setting: 24 h after application of 0.5% BSal in formulation, mean ± SD, n = 6.

A value given as a limit tells only on which side of the number the result lay.

For orientation: AC50 means the midpoint of the concentration-response curve, whichever way the signal moves.

For `O=C(O)c1ccccc1` [BA, benzoic acid], the “Thyroid (TR and TPO only): Experimental Data (call)” value in [1] (Tier 0) is listed as “Negative”. Besides, in data set [1], the “Thyroid (TR and TPO only): assays active / assays” value was 0/12 active. In the data set with thyroid pathway [2], the “Thyroid pathway Reporter protein Agonist: Call” value is “Negative”. Besides, the “Reproductive toxicity NOAEL” value in the data set on rats is on record as “NOAEL 900 mg/kg bw (highest dose tested)”. In the data set on estrogen receptor [3], the “Estrogen pathway receptor binding: Call” value is recorded as “Negative”. Besides, the “Thyroid pathway Regulation of transcription factor activity (TSHR): Call” value in the data set on TSHR is “Negative”. Moreover, in data set [4], the “Developmental Toxicity NOAEL” value is given as “NOAEL 1306 mg/kg bw”. The “Estrogen pathway Reporter protein Antagonist: Call” value in the data set on estrogen receptor [5] is listed as “Negative”. Moreover, the “Estrogen pathway Dimerisation: Call” value with estrogen receptor [6] is “Negative”. In addition, the “Steroidogenesis Aromatase: Call” value with Aromatase is listed as “Negative”. Further, the “Dermal absorption of individual analytes” value in data set [7] (24 h, epidermis + dermis + receptor fluid) is recorded as 1.2 ± 0.7 percentage of the applied dose. The Total recovery in data set [7] (24 h after application of 0.5% BSal in formulation, SA corrected by the amount of SA present in the formulation) is 19.8 ± 17.2 percentage of the applied dose. In [7] (setting [14]), the Dermis is recorded as 1.2 ± 0.7 percentage of the applied dose, the Epidermis result was “< LOQ*”, the Receptor fluid result is “< LOQ*” and the Stratum corneum is 16.8 ± 16.3 percentage of the applied dose. Also, in data set [7] (24 h after application of 0.5% BSal in formulation, mean ± SD, n = 6 skin discs (three donors)), the Surface was 1.7 ± 1.2 percentage of the applied dose. The “Estrogen pathway mRNA induction: Call” value in the data set with estrogen receptor [8] was “Negative”. Moreover, the “Thyroid pathway Reporter protein Antagonist: Call” value in the data set on thyroid pathway [9] is “Negative”. The Vapor pressure in data set [10] is reported as 0.1 Pa. Further, the “Estrogen pathway Cell Proliferation: Call” value in the data set with estrogen receptor [11] is listed as “Negative”. The “Estrogen pathway Reporter protein Agonist: Call” value in the data set with estrogen receptor [12] is “Positive”. Also, on estrogen receptor [12] (read-out: Estrogen pathway Reporter protein Agonist: AC50), the half-maximal activity concentration (AC50) was 7.54 µM. In addition, the “Thyroid pathway mRNA induction: Call” value with thyroid pathway [13] was “Negative”.
